Among the data in patent US4307094A, “Triazolopyridazine derivatives” (Hoffmann-La Roche Inc., priority 1979, dated 1981) are IC50 values, retold here.

pIC50: −log10 of the molar value.

For the experiment, the target named is T1, angiotensin converting enzyme (Oryctolagus cuniculus, UniProt P12822).
T1 sequence (P12822 34-1310): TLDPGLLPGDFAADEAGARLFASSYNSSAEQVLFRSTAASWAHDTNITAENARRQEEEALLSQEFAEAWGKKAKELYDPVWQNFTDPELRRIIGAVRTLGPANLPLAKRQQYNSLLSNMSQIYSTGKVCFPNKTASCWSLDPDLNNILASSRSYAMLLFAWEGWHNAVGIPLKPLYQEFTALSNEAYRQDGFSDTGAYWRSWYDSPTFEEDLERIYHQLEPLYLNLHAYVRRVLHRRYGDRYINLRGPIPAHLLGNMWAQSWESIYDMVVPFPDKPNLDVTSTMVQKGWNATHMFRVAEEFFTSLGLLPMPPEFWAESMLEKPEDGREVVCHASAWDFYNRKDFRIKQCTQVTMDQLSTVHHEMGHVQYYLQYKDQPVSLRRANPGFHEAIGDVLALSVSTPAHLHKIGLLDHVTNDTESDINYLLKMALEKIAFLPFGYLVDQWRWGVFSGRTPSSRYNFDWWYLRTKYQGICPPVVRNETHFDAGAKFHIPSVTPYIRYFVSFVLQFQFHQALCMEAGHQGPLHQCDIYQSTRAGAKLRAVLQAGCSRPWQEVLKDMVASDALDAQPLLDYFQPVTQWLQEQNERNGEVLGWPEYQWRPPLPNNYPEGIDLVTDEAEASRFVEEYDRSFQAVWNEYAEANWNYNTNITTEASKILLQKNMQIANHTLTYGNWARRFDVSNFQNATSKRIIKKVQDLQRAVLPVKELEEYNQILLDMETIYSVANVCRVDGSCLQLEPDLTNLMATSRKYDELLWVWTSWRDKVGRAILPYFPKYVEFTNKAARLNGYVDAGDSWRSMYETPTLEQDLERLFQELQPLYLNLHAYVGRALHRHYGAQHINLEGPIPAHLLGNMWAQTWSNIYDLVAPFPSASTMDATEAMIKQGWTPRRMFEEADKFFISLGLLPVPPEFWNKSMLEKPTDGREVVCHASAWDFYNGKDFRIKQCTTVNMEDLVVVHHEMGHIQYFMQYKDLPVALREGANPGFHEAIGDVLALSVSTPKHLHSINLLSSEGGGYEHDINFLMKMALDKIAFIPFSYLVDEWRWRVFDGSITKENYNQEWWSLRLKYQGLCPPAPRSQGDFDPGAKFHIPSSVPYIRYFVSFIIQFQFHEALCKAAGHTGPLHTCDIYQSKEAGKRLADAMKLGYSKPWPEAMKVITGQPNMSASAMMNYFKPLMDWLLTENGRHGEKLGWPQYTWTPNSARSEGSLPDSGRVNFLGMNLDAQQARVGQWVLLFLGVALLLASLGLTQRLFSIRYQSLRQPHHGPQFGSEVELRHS
As to the kind of experiment: inhibition of angiotensin converting enzyme in vitro (cleavage of hippuryl-histidyl-leucine). To be noted: substrate hippuryl-histidyl-leucine 2 mM, potassium phosphate buffer pH 8.3 (100 mM), NaCl 300 mM, 25 minutes, 37° C. It counts as biochemical. On the procedure: The activity of the present triazolopyridazine derivatives in inhibiting angiotensin converting enzyme in vitro can be determined by the following test.
The method used is based on the method of Cushman and Cheung (Biochem. Pharmacol., 20, 1637-1648) incorporating the modifications introduced by Hayakari et al. (Anal. Biochem., 84, 361-369). The substrate (hippuryl-histidyl-leucine, 2 mM) is incubated with angiotensin converting enzyme in the presence or absence of various concentrations of test substance in potassium phosphate buffer (pH 8.3; 100 mM) containing sodium chloride (300 mM) for 25 minutes at 37° C. (total […] 500 μl). The reaction is terminated by the addition of 3 ml of potassium phosphate buffer (pH 8.3; 200 mM) at 0° C. 2,4,6-trichloro-s-triazine (3%) in 1.5 ml of dioxan is added, and the mixture is agitated until the yellow chromophore has developed fully. The samples are then centrifuged to remove any precipitate which has formed. The yellow chromophore formed by the reaction of the 2,4,6-trichloro-s-triazine with free hippuric acid is measured spectrophotometrically at 382 nm. IC50 values are defined as the concentration of test substance which reduces by 50% the cleavage of hippuryl-histidyl-leucine by angiotensin converting enzyme under the aforementioned conditions.

Turning to `O=C(O)CCn1c(=O)n2n(c1=O)C(C(=O)O)C=CC2` (stereo not shown) [Compound A, 5-carboxy-2,3,5,8-tetrahydro-1,3-dioxo-1H-1,2,4-triazolo[1,2-a]pyridazine-2-propionic acid], the pIC50 was 4.74.
`NC(=O)CCn1c(=O)n2n(c1=O)C(C(=O)O)C=CC2` (stereo not shown) [Compound B, 2-(2-carbamoylethyl)-2,3,5,8-tetrahydro-1,3-dioxo-1H-1,2,4-triazolo[1,2-a]-pyridazine-5-carboxylic acid] gave a pIC50 of 4.19.
As to `O=C(CCn1c(=O)n2n(c1=O)C(C(=O)O)C=CC2)NO` (stereo not shown) [Compound C, 2-[2-(N-hydroxycarbamoyl)ethyl]-2,3,5,8-tetrahydro-1,3-dioxo-1H-1,2,4-triazolo[1,2-a]pyridazine-5-carboxylic acid], the pIC50 was 5.48. This pIC50 is 1.29 log units higher than that of the molecule before.
In turn, `O=C(O)C1C=CCn2c(=O)n(CCS)c(=O)n21` (stereo not shown) [Compound D, 2,3,5,8-tetrahydro-2-(2-mercaptoethyl)-1,3-dioxo-1H-1,2,4-triazolo[1,2-a]pyridazine-5-carboxylic acid] gave a pIC50 of 6.32.

As a reminder, the pIC50 is −log10 of the IC50, conventionally taken in molar units.
